For 14 molecules, IC50 results are on record in patent US20240409558A1, “IRREVERSIBLE INHIBITORS OF KRAS” (BIOMEA FUSION, INC., priority 2021, published 2024).

Where only a bound is given, the exact number is not on record here.

One assay has as its system human KRAS G12C mutated cell line MIA PaCa-2. The experiment in a line: Inhibition of proliferation of MIA PaCa-2 cells (CellTiter-Glo, 7 day). The assay is classed as cell-based. The following applies: 168 h, Table 3, 7 day, mean, read-out: MIA PaCa-2 IC50 (μM) 7 day Mean. The method, boiled down: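 MIA PaCa-2 cells (RPMI-1640, 10% FBS) seeded at about 1000 cells/well; eight compound concentrations in duplicate added 2 h later, with media and compound refreshed on day 3. ATP-luminescence viability read on day 7 by CellTiter-Glo; % inhibition relative to 0.2% DMSO control.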
(Cellular ATP, detected with luciferase, serves as a proxy for viable cell number.)
In general, IC50 refers to the concentration that gives 50% inhibition. As for `C=CC(=O)N1C2CCC1CN(c1cc(OC[C@@]34CCCN3C[C@H](F)C4)nc3c(F)c(-c4cc(O)cc(Cl)c4C4CC4)ccc13)C2` [Compound 326], the half-maximal inhibitory concentration (IC50) was more than 1 µM.

For `C=CC(=O)N1CCN(c2nc(OC[C@@]34CCCN3C[C@H](F)C4)nc3cc(-c4cccc5cccc(Cl)c45)c(F)cc23)CC12CC2` [Compound 323], the IC50 was more than 1 µM.

As to `C=CC(=O)N1CCN(c2nc(OC[C@@]34CCCN3C[C@H](F)C4)nc3cc(-c4cc(O)cc(Cl)c4C4CC4)cnc23)CC12CC2` [Compound 314, 1-[7-[7-(3-chloro-2-cyclopropyl-5-hydroxy-phenyl)-2-[[(2R,8S)-2-fluoro-1,2,3,5,6,7-hexahydropyrrolizin-8-yl]methoxy]pyrido[3,2-d]pyrimidin-4-y1]-4,7-diazaspiro[2.5]octan-4-yl]prop-2-en-1-one], the concentration for half-maximal inhibition (IC50) was more than 1 µM.

`C=CC(=O)N1C2CCC1CN(c1nc(OC[C@@]34CCCN3C[C@H](F)C4)nc3c(F)c(-c4c(C)c(Cl)cc5[nH]ncc45)ncc13)C2` [Compound 304, 1-[3-[7-(6-chloro-5-methyl-1H-indazol-4-yl)-8-fluoro-2-[[(2R,8S)-2-fluoro-1,2,3,5,6,7-hexahydropyrrolizin-8-yl]methoxy]pyrido[4,3-d]pyrimidin-4-yl]-3,8-diazabicyclo[3.2.1]octan-8-yl]prop-2-en-1-one]: the IC50 was 0.017 µM.

In the case of `C=CC(=O)N1CCN(c2nc(OC[C@@]34CCCN3C[C@H](F)C4)nc3c(F)c(-c4cc(O)cc(Cl)c4C4CC4)ccc23)CC12CC2` [Compound 313, 1-[7-[7-(3-chloro-2-cyclopropyl-5-hydroxy-phenyl)-8-fluoro-2-[[(2R,8S)-2-fluoro-1,2,3,5,6,7-hexahydropyrrolizin-8-yl]methoxy]quinazolin-4-yl]-4,7-diazaspiro[2.5]octan-4-yl]prop-2-en-1-one], the 50% inhibitory concentration (IC50) turned out to be 0.0373 µM.

As to `C=CC(=O)N1C[C@H]2C[C@@H]1CN2c1nc(OC[C@@]23CCCN2C[C@H](F)C3)nc2cc(-c3cc(O)cc(Cl)c3C3CC3)cnc12` [Compound 312, 1-[(1R,4R)-5-[7-(3-chloro-2-cyclopropyl-5-hydroxy-phenyl)-2-[[(2R,8S)-2-fluoro-1,2,3,5,6,7-hexahydropyrrolizin-8-yl]methoxy]pyrido[3,2-d]pyrimidin-4-y1]-2,5-diazabicyclo[2.2.1]heptan-2-yl]prop-2-en-1-one], the IC50 was more than 1 µM.

Regarding `C=CC(=O)N1CCC(CC)(c2nc(OC[C@@]34CCCN3C[C@H](F)C4)nc3c(F)c(-c4cc(O)cc(Cl)c4C4CC4)ncc23)CC1` [Compound 332, 1-[4-[7-(3-chloro-2-cyclopropyl-5-hydroxy-phenyl)-8-fluoro-2-[[(2R,8S)-2-fluoro-1,2,3,5,6,7-hexahydropyrrolizin-8-yl]methoxy]pyrido[4,3-d]pyrimidin-4-yl]-4-ethyl-1-piperidyl]prop-2-en-1-one], the IC50 is more than 1 µM.

Consider `C=CC(=O)N1CCC(c2nc(OC[C@@]34CCCN3C[C@H](F)C4)nc3c(F)c(-c4cc(O)cc5ccc(F)c(F)c45)ncc23)C[C@@H]1C` (stereo partly drawn) [Compound 331, 1-[(2S)-4-[7-(7,8-difluoro-3-hydroxy-1-naphthyl)-8-fluoro-2-[[(2R,8S)-2-fluoro-1,2,3,5,6,7-hexahydropyrrolizin-8-yl]methoxy]pyrido[4,3-d]pyrimidin-4-y1]-2-methyl-1-piperidyl]prop-2-en-1-one], for which the IC50 turned out to be 0.0373 µM.

Staying with this assay, now noted: 168 h, Table 4, 7 day, mean, read-out: MIA PaCa-2 IC50 (μM) 7 day Mean.
For the molecule `Oc1cc(Cl)c(C2CC2)c(-c2ccc3c(C4CCNCC4)nc(OC[C@@]45CCCN4C[C@H](F)C5)nc3c2F)c1` [Compound 430, 3-chloro-4-cyclopropyl-5-[8-fluoro-2-[[(2R,8S)-2-fluoro-1,2,3,5,6,7-hexahydropyrrolizin-8-yl]methoxy]-4-(4-piperidyl)quinazolin-7-yl]phenol], the 50% inhibitory concentration (IC50) came out at 0.983 µM.

Turning to `Oc1cc(Cl)c(C2CC2)c(-c2cc3nc(OC[C@@]45CCCN4C[C@H](F)C5)nc(N4CCNC5(CC5)C4)c3cc2F)c1` [Compound 405, 3-chloro-4-cyclopropyl-5-[4-(4,7-diazaspiro[2.5]octan-7-y1)-6-fluoro-2-[[(2R,8S)-2-fluoro-1,2,3,5,6,7-hexahydropyrrolizin-8-yl]methoxy]quinazolin-7-yl]phenol], the IC50 is more than 1 µM.

For `Cn1ccnc1-c1c(F)cccc1-c1cnc2c(N3CC4CCC(C3)N4)nc(OC[C@@]34CCCN3C[C@H](F)C4)nc2c1` [Compound 427, 4-(3,8-diazabicyclo[3.2.1]octan-3-yl)-2-[[(2R,8S)-2-fluoro-1,2,3,5,6,7-hexahydropyrrolizin-8-yl]methoxy]-7-[3-fluoro-2-(1-methylimidazol-2-yl)phenyl]pyrido[3,2-d]pyrimidine], the 50% inhibitory concentration (IC50) was more than 1 µM.

For `F[C@H]1CN2CCC[C@@]2(COc2nc(N3CC4CCC(C3)N4)c3ccc(-c4cccc5cccc(Cl)c45)cc3n2)C1` [Compound 423], the IC50 is more than 1 µM.

Regarding `CC(C)C(O)CN1C2CCC1CN(c1nc(OC[C@@]34CCCN3C[C@H](F)C4)nc3c(F)c(-c4cc(O)cc(Cl)c4C4CC4)ncc13)C2` (some centres unmarked) [Compound 434], the concentration for half-maximal inhibition (IC50) is more than 1 µM.

`Oc1cccc(Cl)c1-c1cc(OCC23CCCN2C[C@H](F)C3)c2c(N3CCNCC34CC4)nc(OC[C@@]34CCCN3C[C@H](F)C4)nc2c1` (stereo partly drawn) [Compound 420, 3-chloro-2-[4-(4,7-diazaspiro[2.5]octan-4-yl)-5-[[(2R)-2-fluoro-1,2,3,5,6,7-hexahydropyrrolizin-8-yl]methoxy]-2-[[(2R,8S)-2-fluoro-1,2,3,5,6,7-hexahydropyrrolizin-8-yl]methoxy]quinazolin-7-yl]phenol]: the 50% inhibitory concentration (IC50) was more than 1 µM.
